Tests used:
[1] = target: T1, M2PYK (Homo sapiens, UniProt P14618); test: Analytical gel chromatography of M2PYK oligomerisation/dissociation; conditions: 10 mM amino acid; 0.1 mg/ml M2PYK; PBS-CM pH 7.4, room temperature, 12 h
T1 construct: and N-terminal domain (blue, residues 13–43. Residues 1–12, as well as additional residues from the His6-tagged construct); made in house; host or cells: Escherichia coli BL21(DE3), pET28a
Description: Analytical gel chromatography was performed to characterise the oligomerisation/dissociation of M2PYK in the presence/absence of different amino acids. Aliquots of 400 µl of 0.1 mg/ml purified M2PYK were incubated with or without 10 mM amino acids in PBS-CM at room temperature at pH 7.4 overnight. After the incubation, samples were loaded independently onto a Superdex 200 PC 3.2/30 gel-filtration column. Samples of 25 µl were injected, and the column flow rate was maintained at 0.1 ml/min. Protein peaks were monitored using the absorbance at both 280 and 214 nm. The retention volumes for the M2PYK peaks were the same as those identified by SEC-MALS as monomer and tetramer peaks (using the same Superdex 200 column) in our previous study.
Analytical gel chromatography was used to investigate the effects of amino acids on the oligomerisation of M2PYK. […] Dissociation studies of M2PYK using SEC-MALS [13] and ultracentrifugation show the predominant forms in solution are tetramer and monomer.

[2] = target: T1, M2PYK; test: ELISA with anti-M2PYK antibody binding the C–C interface (monomer–tetramer equilibrium); conditions: 10 mM amino acid; 0.0039–2.5 µg/ml M2PYK; 1 h, pH 7.4, room temperature
Text: For the production of specific antibodies, a peptide immunogen (Supplementary Figure S1) specific for M2PYK was covalently conjugated with the carrier protein BSA, and injected into Balb/c female mice (6–7 weeks) at 2-week intervals. A mouse showing best selectivity for M2PYK was chosen as a spleen donor. After the production of a hybridoma, a cell line secreting a specific monoclonal antibody was screened and expanded. The specific monoclonal antibody against M2PYK was identified, purified and conjugated with horseradish peroxidase (HRP) for further ELISAs.
A stock solution of anti-His-tag antibody in carbonate buffer (pH 9.6) was coated onto wells at 50 µl/well at 4°C overnight. The wells were then blocked with 100 µl/well of PBS/Tween 20/3% BSA for 1 h at room temperature. Titrated M2PYK (2.5–0.0039 µg/ml) was incubated with or without ligands (10 mM for all amino acids and 1 mM for FBP) in PBS/Tween 20/3% BSA at room temperature for 1 h. Then, 100 µl of the solution was added to each prepared well for an incubation of 1 h. Afterwards, a 100 µl aliquot of PBS/Tween 20/3% BSA containing 4 µg/ml HRP-conjugated M2PYK antibody was added to each well and incubated for 1 h at room temperature. Electrochemiluminescence solution was added at 50 µl/well to develop the luminescence, which was read immediately with a plate reader. Three washes with PBS/Tween 20/3% BSA were performed between each step.
To investigate the effect of ligand binding on monomer–tetramer equilibrium at lower protein concentrations, we developed an ELISA assay. […] As the epitope is hidden in the tetrameric form of M2PYK, antibody binding on the C–C interface of M2PYK reflects the amount of monomer/dimer but not tetramer. The ELISA tests were performed using low concentrations of His6-M1/2PYK (0.0039–2.5 µg/ml) incubated with no ligand or 10 mM of each amino acid for 1 h in PBS-CM at pH 7.4 at room temperature. The incubated solutions were added to 96-well plates precoated with anti-His-tag antibodies. HRP-conjugated M2PYK antibodies were then incubated, followed by luminescence reading.

[3] = target: T1, M2PYK; test: X-ray co-crystal structures of M2PYK with amino acids; conditions: wild-type M2PYK co-crystallised with the amino acid
Description: Single crystals of M2PYK were obtained at 17°C by vapour diffusion using the hanging-drop technique. The drops were formed by mixing 1.5 µl of wild-type M2PYK (20 mg/ml) solution containing ligands with 1.5 µl of reservoir solution (composed of 11–16% PEG 3350, 100 mM sodium cacodylate, 50 mM MgCl2, and 100 mM KCl). […] The pH for obtaining optimal crystals was 7.2–7.8. Before data collection, crystals were dipped in a freezing solution consisting of reservoir solution supplemented with the same concentration of ligands as in the original solution, as well as up to 35% PEG 3350, which eliminated the appearance of ice rings. Diffraction data were collected at the Diamond synchrotron radiation facility in Oxfordshire, U.K. on beamline I03 (for the M2PYK/Ala structure), I04-1 (for the M2PYK/Phe and the M2PYK/Trp structures), and I24 (for the M2PYK/Ser structure). All datasets were obtained from a single crystal flash-frozen in liquid nitrogen. A more detailed description and discussion of the crystallisation trials is in the Supplementary Material.
All four M2PYK structures were solved by molecular replacement using the program PHASER [40]. A monomer (Chain A) from the previously determined tetrameric structure of M2PYK (in R-state, PDB ID: 4B2D) served as the search model for the M2PYK/Ser structure. Chain A of a different M2PYK structure (in T-state, PDB ID: 4FXJ) was used as the search model for the M2PYK/Phe, M2PYK/Ala, and M2PYK/Trp structures. There were clear molecular replacement solutions for all structures. The resulting models were then subjected to 10 cycles of rigid body refinement using the program REFMAC [41]. Afterwards, manual changes were made to models to adjust side chain conformations and to add additional residues to the N terminus using COOT [42]. The models were then subjected to several rounds of translation libration screw refinement and restrained refinement, and ligand molecules were added where clear unbiased Fo–Fc electron density was observed. Water molecules were added to the model using COOT, and after several rounds of restrained refinement, R/Rfree values converged.

T1 sequence (P14618 whole entry, the tested form may be a part): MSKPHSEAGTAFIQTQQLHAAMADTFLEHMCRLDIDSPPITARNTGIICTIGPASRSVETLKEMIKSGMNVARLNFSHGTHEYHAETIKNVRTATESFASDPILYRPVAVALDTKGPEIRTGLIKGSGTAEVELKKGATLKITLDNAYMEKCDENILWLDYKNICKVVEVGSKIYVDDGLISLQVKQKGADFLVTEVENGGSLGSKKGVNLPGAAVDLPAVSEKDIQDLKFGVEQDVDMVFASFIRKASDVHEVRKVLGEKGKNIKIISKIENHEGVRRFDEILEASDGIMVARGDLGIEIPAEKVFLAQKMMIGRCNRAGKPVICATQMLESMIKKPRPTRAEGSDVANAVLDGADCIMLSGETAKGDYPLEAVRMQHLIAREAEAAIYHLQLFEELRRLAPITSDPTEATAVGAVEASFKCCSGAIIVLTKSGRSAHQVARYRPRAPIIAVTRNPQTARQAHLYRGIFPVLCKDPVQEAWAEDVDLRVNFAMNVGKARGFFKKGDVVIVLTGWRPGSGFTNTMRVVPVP

N[C@@H](Cc1ccccc1)C(=O)O [phenylalanine, L-phenylalanine]
effect on M2PYK oligomerisation (tetramer versus monomer) [1]: stabilised tetramers over monomers
oligomeric state of M2PYK at low protein concentration [2]: predominantly tetrameric
Conformation of M2PYK tetramer in co-crystal structure [3]: T-state

— article PMC5980995, “An allostatic mechanism for M2 pyruvate kinase as an amino-acid sensor” (Biochemical Journal, 2018)
